Measured values taken from PubChem BioAssay AID2060607 (Molecular Pharmacology Branch, DTP, NCI, 2025).

Tested on: 876862-298-R-J1-PDC complex spheroids, viability % test/control
Test: Anticancer human tumor 876862-298-R-J1-PDC patient-derived endometrial carcinoma cell line growth inhibition [CLK]
Details: for IC50: curve of first compound; for viability, T/C: stronger effect = lower value
Summary of the method: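 Multi-cell-type spheroids combined patient-derived tumor cells with HUVEC endothelial cells and human mesenchymal stem cells. Paired agents were dosed in half-log steps down from about clinical Cmax, or from 10 microM where Cmax was unknown.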

[1] = second compound 0.0316 µM, first compound 0.0316 µM
[2] = second compound 0.0316 µM, first compound 0.1 µM
[3] = second compound 0.0316 µM, first compound 0.316 µM
[4] = second compound 0.0316 µM, first compound 1 µM
[5] = second compound 0.0316 µM, first compound 3.16 µM
[6] = second compound 0.0316 µM, first compound 10 µM
[7] = second compound 0.1 µM, first compound 0.0316 µM
[8] = second compound 0.1 µM, first compound 0.1 µM
[9] = second compound 0.1 µM, first compound 0.316 µM
[10] = second compound 0.1 µM, first compound 1 µM
[11] = second compound 0.1 µM, first compound 3.16 µM
[12] = second compound 0.1 µM, first compound 10 µM
[13] = second compound 0.316 µM, first compound 0.0316 µM
[14] = second compound 0.316 µM, first compound 0.1 µM
[15] = second compound 0.316 µM, first compound 0.316 µM
[16] = second compound 0.316 µM, first compound 1 µM
[17] = second compound 0.316 µM, first compound 3.16 µM
[18] = second compound 0.316 µM, first compound 10 µM
[19] = second compound 1 µM, first compound 0.0316 µM
[20] = second compound 1 µM, first compound 0.1 µM
[21] = second compound 1 µM, first compound 0.316 µM
[22] = second compound 1 µM, first compound 1 µM
[23] = second compound 1 µM, first compound 3.16 µM
[24] = second compound 1 µM, first compound 10 µM
[25] = second compound 3.16 µM, first compound 0.0316 µM
[26] = second compound 3.16 µM, first compound 0.1 µM
[27] = second compound 3.16 µM, first compound 0.316 µM
[28] = second compound 3.16 µM, first compound 1 µM
[29] = second compound 3.16 µM, first compound 3.16 µM
[30] = second compound 3.16 µM, first compound 10 µM
[31] = second compound 10 µM, first compound 0.0316 µM
[32] = second compound 10 µM, first compound 0.1 µM
[33] = second compound 10 µM, first compound 0.316 µM
[34] = second compound 10 µM, first compound 1 µM
[35] = second compound 10 µM, first compound 3.16 µM
[36] = second compound 10 µM, first compound 10 µM
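Also: spheroids exposed to drugs for 7 days before readout.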
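For viability, T/C in this document: 100% = DMSO vehicle control wells.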

For `CC(C)CC(NC(=O)C(Cc1ccccc1)NC(=O)c1cnccn1)B(O)O` (stereo unspecified) + CNC(=O)c1ccc(Nc2nc(OC3CCCC3)c3c(-c4ccc5nc(C)oc5c4)c[nH]c3n2)c(OC)c1, the IC50 (second compound 0.0316 µM) was 1.53 nM, the IC50 (second compound 0.1 µM) was < 0.949 nM and the IC50 (second compound 0.316 µM) was < 0.949 nM. For the same molecule, the IC50 (second compound 1 µM) was < 0.949 nM, the IC50 (second compound 3.16 µM) was < 0.949 nM and the IC50 (second compound 10 µM) was < 0.949 nM. It also gave a viability, T/C (second compound 0.0316 µM, first compound 0.000949 µM) of 78.1%, a viability, T/C (second compound 0.0316 µM, first compound 0.003 µM) of 10.6% and a viability, T/C (second compound 0.0316 µM, first compound 0.00949 µM) of 0.67%. For the same molecule, the viability, T/C (second compound 0.0316 µM, first compound 0.03 µM) was 0.44%, the viability, T/C (second compound 0.0316 µM, first compound 0.0949 µM) was 1.97% and the viability, T/C (second compound 0.0316 µM, first compound 0.3 µM) was 1.37%. The viability, T/C (second compound 0.1 µM, first compound 0.000949 µM) was 47.3%, the viability, T/C (second compound 0.1 µM, first compound 0.003 µM) was 7.8% and the viability, T/C (second compound 0.1 µM, first compound 0.00949 µM) was 0.68%. It also gave a viability, T/C (second compound 0.1 µM, first compound 0.03 µM) of 0.53%, a viability, T/C (second compound 0.1 µM, first compound 0.0949 µM) of 1.95% and a viability, T/C (second compound 0.1 µM, first compound 0.3 µM) of 0.42%. It also gave a viability, T/C (second compound 0.316 µM, first compound 0.000949 µM) of 43.2%, a viability, T/C (second compound 0.316 µM, first compound 0.003 µM) of 5.92% and a viability, T/C (second compound 0.316 µM, first compound 0.00949 µM) of 1.95%. The viability, T/C (second compound 0.316 µM, first compound 0.03 µM) was 0.56%, the viability, T/C (second compound 0.316 µM, first compound 0.0949 µM) was 1.66% and the viability, T/C (second compound 0.316 µM, first compound 0.3 µM) was 0.96%. The viability, T/C (second compound 1 µM, first compound 0.000949 µM) was 38.4%, the viability, T/C (second compound 1 µM, first compound 0.003 µM) was 4.5% and the viability, T/C (second compound 1 µM, first compound 0.00949 µM) was 0.69%. It also gave a viability, T/C (second compound 1 µM, first compound 0.03 µM) of 0.62%, a viability, T/C (second compound 1 µM, first compound 0.0949 µM) of 1.84% and a viability, T/C (second compound 1 µM, first compound 0.3 µM) of 0.22%. It also gave a viability, T/C (second compound 3.16 µM, first compound 0.000949 µM) of 27.6%, a viability, T/C (second compound 3.16 µM, first compound 0.003 µM) of 3.22% and a viability, T/C (second compound 3.16 µM, first compound 0.00949 µM) of 0.41%. It also gave a viability, T/C (second compound 3.16 µM, first compound 0.03 µM) of 0.44%, a viability, T/C (second compound 3.16 µM, first compound 0.0949 µM) of 1.98% and a viability, T/C (second compound 3.16 µM, first compound 0.3 µM) of 1.11%. The viability, T/C (second compound 10 µM, first compound 0.000949 µM) was 23.3%, the viability, T/C (second compound 10 µM, first compound 0.003 µM) was 2.73% and the viability, T/C (second compound 10 µM, first compound 0.00949 µM) was 0.85%. The viability, T/C (second compound 10 µM, first compound 0.03 µM) was 0.4%, the viability, T/C (second compound 10 µM, first compound 0.0949 µM) was 0.82% and the viability, T/C (second compound 10 µM, first compound 0.3 µM) was 1.17%.
With `CC1COCCN1c1cc(C2(S(C)(=N)=O)CC2)nc(-c2ccnc3[nH]ccc23)n1` (stereo unspecified) + CNC(=O)c1ccc(Nc2nc(OC3CCCC3)c3c(-c4ccc5nc(C)oc5c4)c[nH]c3n2)c(OC)c1 the IC50 (second compound 0.0316 µM) was 2200 nM, the IC50 (second compound 0.1 µM) was < 31.6 nM and the IC50 (second compound 0.316 µM) was < 31.6 nM. For the same molecule, the IC50 (second compound 1 µM) was < 31.6 nM, the IC50 (second compound 3.16 µM) was < 31.6 nM and the IC50 (second compound 10 µM) was < 31.6 nM. The viability, T/C [1] was 70.2%, the viability, T/C [2] was 84.7% and the viability, T/C [3] was 75.5%. It also gave a viability, T/C [4] of 69.8%, a viability, T/C [5] of 40.9% and a viability, T/C [6] of 22.5%. It also gave a viability, T/C [7] of 47.2%, a viability, T/C [8] of 50.9% and a viability, T/C [9] of 42.7%. For the same molecule, the viability, T/C [10] was 44.6%, the viability, T/C [11] was 24.3% and the viability, T/C [12] was 15%. The viability, T/C [13] was 43.8%, the viability, T/C [14] was 41.5% and the viability, T/C [15] was 39.1%. For the same molecule, the viability, T/C [16] was 30%, the viability, T/C [17] was 20.5% and the viability, T/C [18] was 11.4%. It also gave a viability, T/C [19] of 34.4%, a viability, T/C [20] of 37.4% and a viability, T/C [21] of 28.3%. The viability, T/C [22] was 22.6%, the viability, T/C [23] was 13% and the viability, T/C [24] was 6.42%. It also gave a viability, T/C [25] of 29%, a viability, T/C [26] of 21% and a viability, T/C [27] of 17.2%. For the same molecule, the viability, T/C [28] was 11.7%, the viability, T/C [29] was 8.18% and the viability, T/C [30] was 3.92%. For the same molecule, the viability, T/C [31] was 22.4%, the viability, T/C [32] was 19.5% and the viability, T/C [33] was 14.1%. The viability, T/C [34] was 12.6%, the viability, T/C [35] was 7.52% and the viability, T/C [36] was 3.99%.
With `O=C(c1cc(Cc2n[nH]c(=O)c3ccccc23)ccc1F)N1CCN(C(=O)C2CC2)CC1` + CNC(=O)c1ccc(Nc2nc(OC3CCCC3)c3c(-c4ccc5nc(C)oc5c4)c[nH]c3n2)c(OC)c1 the IC50 (second compound 0.0316 µM) was > 10000 nM, the IC50 (second compound 0.1 µM) was 2090 nM and the IC50 (second compound 0.316 µM) was < 31.6 nM. For the same molecule, the IC50 (second compound 1 µM) was < 31.6 nM, the IC50 (second compound 3.16 µM) was < 31.6 nM and the IC50 (second compound 10 µM) was < 31.6 nM. For the same molecule, the viability, T/C [1] was 70.5%, the viability, T/C [2] was 97% and the viability, T/C [3] was 84.5%. It also gave a viability, T/C [4] of 94.7%, a viability, T/C [5] of 96.8% and a viability, T/C [6] of 72.6%. It also gave a viability, T/C [7] of 47.4%, a viability, T/C [8] of 55% and a viability, T/C [9] of 50.6%. For the same molecule, the viability, T/C [10] was 50.6%, the viability, T/C [11] was 51.5% and the viability, T/C [12] was 47.3%. The viability, T/C [13] was 49.1%, the viability, T/C [14] was 44.6% and the viability, T/C [15] was 40.6%. The viability, T/C [16] was 40.6%, the viability, T/C [17] was 39.4% and the viability, T/C [18] was 35.9%. The viability, T/C [19] was 39.1%, the viability, T/C [20] was 33.7% and the viability, T/C [21] was 29.6%. For the same molecule, the viability, T/C [22] was 34.1%, the viability, T/C [23] was 31.3% and the viability, T/C [24] was 26.1%. The viability, T/C [25] was 25.5%, the viability, T/C [26] was 23.7% and the viability, T/C [27] was 20.4%. It also gave a viability, T/C [28] of 25.3%, a viability, T/C [29] of 23.3% and a viability, T/C [30] of 14.3%. For the same molecule, the viability, T/C [31] was 22%, the viability, T/C [32] was 21.5% and the viability, T/C [33] was 20.8%. The viability, T/C [34] was 19.4%, the viability, T/C [35] was 23.5% and the viability, T/C [36] was 14.6%.
